According to article PMC8351079, “Molecular encapsulation of andrographolide in 2-hydroxypropyl-β-cyclodextrin cavity: synthesis, characterization, pharmacokinetic and in vitro antiviral activity analysis against SARS-CoV-2” (Heliyon, 2021):
In brackets after ≈: the same amount, converted by molar mass. Where two headings read alike, the source gives them in different places.

Legend:
[1] = room temperature; cited from earlier work
[2] = cited from earlier work
[3] = Pharmacokinetic analysis in rats (AND in plasma by HPLC); details: male, Sprague Dawley, in vivo, rat
[4] = in vivo, cited from earlier work
[5] = Solubility analysis by saturated solution method; type: physicochemical; details: aqueous phase, 37 °C
Description: The solubility of solid complex was measured by saturated solution method. […] Subsequently, suspension was filtered and 0.1 mL was diluted to 1 mL with water. […] All measurements were noticed in triplicate (n = 3).

[6] = Pharmacokinetic analysis in rats (AND in plasma by HPLC); parameters: species or system male Sprague Dawley rats; details: in vivo, rat
Description: The pharmacokinetic analysis was carried out in male Sprague Dawley rats. The animals were kept in light controlled environment (Photoperiod~12 h, 23 ± 1 °C, 50 ± 5% humidity) with access to food and water ad libitum. […] In brief, 120 male rats were indiscriminately divided into 30 groups of 4 animals each similar to blood collection time points. AND and AND equivalent to 100 mg.kg^−1 in AND-2-HyP-β-CYD complex was administered orally by gavages.
The AND in plasma was monitored up to 48 h post oral administration of AND and AND-2-HyP-β-CYD complex. Blood samples were collected in both groups at 0.083, 0.25, 0.5, 1, 2, 4, 8, 16, 24 and 48 h. About 750 μl of blood sample was isolated from the retro-orbital vein into microcentrifuge tubes containing 100 μl of 10 % w/v sodium citrate as anticoagulant. The plasma was extracted from the blood by centrifugation at 5000 rpm for 20 min at 4 °C and stored at -40 °C until analyzed.
To extract the AND from plasma samples, plasma was typically mixed with methanol (1: 3 ratio) and vortexed for 20 min. Post mixing, the homogenate was centrifuged for 20 min at 5000 rpm to extract the proteins. The supernatant was filtered through 0.22 μm membrane filter and 10 μl was injected as specified earlier in to the HPLC system.
Plasma concentration data were analyzed and computed for one-compartmental pharmacokinetic parameters. The following pharmacokinetic parameters were assessed: ke (h), t1/2 (h), Cmax (μg.mL^−1), AUClast (h.μg.mL^−1), AUCinf (h.μg.mL^−1), MRT (h), CLTotal (L.h^−1), Vd (L) and F %.

[7] = Dissolution test (USP apparatus, SIF pH 7.2); type: physicochemical; details: SIF pH 7.2, after 2 h
Description: Dissolution testing was carried out using USP dissolution rate test apparatus as per the standard protocol with HPLC method as specified earlier. In brief, 100 mg of AND or 100 mg of AND equivalent in AND-2-HyP-β-CYD complex powder was suspended in simulated intestinal fluid (SIF, pH 7.2, 900 mL) and paddle was rotated at 50 rpm. The temperature of SIF was kept at 37 ± 2 °C. At specified time intervals, 2 mL of the SIF was taken and replaced with identical volume.

[8] = Cytotoxicity testing, MTT cell proliferation assay; type: cell-based; details: African green monkey, Vero E6 cells, concentration not given, read-out: % Cell viability against Vero E6 cells
Description: The cytotoxic effect of AND-2-HyP-β-CYD complex on the property of Vero E6 cells was evaluated by using MTT dye [3-(4,5-dimethylthiazol-2-yl)-2,5-diphenyltetrazolium bromide] assay technique. In brief, 1 × 10^4 Vero E6 cells were incubated for 24 h in serum DMEM (Dulbecco's Modified Eagle Medium) of about 200-μl in a 96 wells microtiter plate. Subsequently, Vero E6 cells were incubated for 24 h as well as 72 h with 10 μg.mL^−1 or 100-μg.mL^−1 of AND-2-HyP-β-CYD complex. On the other hand, remedisivir was taken as standard in identical concentration range. MTT dye stock solution (0.5 mg.mL^−1) was incorporated to each well of the microtiter plate post completion of incubation time. The plate was further incubated in 5% CO2 incubator at 37 °C for 4 h. The formazon crystals liberated after cell lysis, were suspended in 100 μL of DMSO (Dimethyl sulfoxide) in the last step. The absorbance was captured using reference wavelength of 630 nm in a ELISA reader at 570 nm.

SARS-CoV-2 = experiment: microbe, parasite or virus in culture; type: cell-based; details: for % Inhibition of virus replication post infection: concentration not given; for IC50: Severe acute respiratory syndrome coronavirus 2, Vero C1008, Vero E6 cells infected with SARS-CoV-2, MOI 0.01, qRT-PCR after 48 h
[9] = male, Sprague Dawley, oral, 100 mg/kg (AND equivalent)

Structure (SMILES): CC(O)COC[C@H]1O[C@@H]2O[C@H]3[C@H](O)[C@@H](O)[C@@H](O[C@H]4[C@H](O)[C@@H](O)[C@@H](O[C@H]5[C@H](O)[C@@H](O)[C@@H](O[C@H]6[C@H](O)[C@@H](O)[C@@H](O[C@H]7[C@H](O)[C@@H](O)[C@@H](O[C@H]8[C@H](O)[C@@H](O)[C@@H](O[C@H]1[C@H](O)[C@H]2O)O[C@@H]8COCC(C)O)O[C@@H]7COCC(C)O)O[C@@H]6COCC(C)O)O[C@@H]5COCC(C)O)O[C@@H]4COCC(C)O)O[C@@H]3COCC(C)O (stereo partly drawn) [2-HyP-β-CYD, 2-Hydroxypropyl-β-cyclodextrin]
- Aqueous solubility [1]: > 500000 µg/mL

Structure (SMILES): C=C1CC[C@@H]2[C@](C)(CO)[C@H](O)CC[C@@]2(C)[C@@H]1C/C=C1/C(=O)OC[C@H]1O [AND, Andrographolide]
- log P [2]: 2.632 ± 0.135
- AUC(0-inf) ([3]; iv, 10 mg/kg): 891 ± 180 µg·h/mL
- AUC(0-t) ([3]; iv, 10 mg/kg): 801 ± 181 µg·h/mL
- MRT ([3]; iv, 10 mg/kg): 1.11 ± 0.04 h
- Vd ([3]; iv, 10 mg/kg): 0.013 ± 0.003 L
- half-life ([3]; iv, 10 mg/kg): 0.859 ± 0.031 h
- clearance ([3]; iv, i.v., 10 mg/kg, read-out: CLTotal (converted)): 0.183 mL/min
- Tmax ([3]; oral, 100 mg.kg^−1): 2 h
- Half-life (t1/2) ([4]; iv): 1.86 ± 0.21 h
- Absolute oral bioavailability ([4]; po): 9.27 ± 1.69%
- Cmax ([4]; po): 0.73 ± 0.17 μM.L^−1
- Half-life (t1/2) ([4]; po): 3.30 ± 0.35 h
- Tmax ([4]; po): 0.42 ± 0.14 h
- solubility at 24 h [5]: 6.39 ± 0.47 µg/mL (≈ 18.2 µM)
- bioavailability ([6]; male, Sprague Dawley, 100 mg.kg^−1, oral 100 mg/kg vs i.v. 10 mg/kg, read-out: F (%), bioavailability): 15.9 ± 3.84%
- AUC(0-inf) [6, 9]: 1850 ± 306 µg·h/mL
- AUC(0-t) [6, 9]: 1220 ± 143 µg·h/mL
- Cmax [6, 9]: 240 ± 75.4 µg/mL
- half-life [6, 9]: 5.92 ± 0.21 h
- MRT ([6]; po, 100 mg/kg): 1.49 ± 0.0.085 h
- % release [7]: 27.89 ± 1.32%

Structure (SMILES): CCC(CC)COC(=O)[C@H](C)N[P@](=O)(OC[C@H]1O[C@@](C#N)(c2ccc3c(N)ncnn23)[C@H](O)[C@@H]1O)Oc1ccccc1 [Remdesivir]
- viability at 24 h ([8]; 24 h): 99.2%
- viability at 48 h ([8]; 48 h): 94.4%
- % Inhibition of virus replication post infection (SARS-CoV-2; 24 h, E gene): 72.26%
- % Inhibition of virus replication post infection (SARS-CoV-2; 24 h, N gene): 77.61%
- % Inhibition of virus replication post infection (SARS-CoV-2; 48 h, E gene): 99.64%
- % Inhibition of virus replication post infection (SARS-CoV-2; 48 h, N gene): 99.76%
- IC50 (SARS-CoV-2; read-out: IC50 (E gene)): 0.09 µg/mL (≈ 0.149 µM)
- IC50 (SARS-CoV-2; read-out: IC50 (N gene)): 0.06 µg/mL (≈ 0.0996 µM)
